Patent US11583538B2, “Substituted pyrrolo[1,2-a]pyrazines and pyrrolo[1,2-a][1,4]diazepines as TREX1 inhibitors” (Venenum Biodesign, LLC, priority 2019, dated 2023)

Target: human TREX1 (Homo sapiens (Human), UniProt Q9NSU2)
Experiment: TREX1 Exonuclease Assay
Format: biochemical
Experimental: For human TREX1, the nucleotide sequence of the gene construct was codon optimized for expression in the bacterial host. The sequence was incorporated into the pMAL-c5e vector (NEB) downstream of a solubility-promoting MBP (maltose binding protein) fusion partner. The fusion protein product was expressed in E. coli strain BL21 (DE3) (Millipore) and purified in a series of chromatographic steps. Initial steps were conducted using a dextrin sepharose affinity column followed by a Q-sepharose ion exchange column (both GE Healthcare). After the second column the MBP partner was removed by incubation with enterokinase (NEB). Further purification was carried out with the second application of a Q-sepharose column followed by a Superdex 75 (GE Healthcare) size exclusion column. Finally, a heparin sepharose column (GE Healthcare) was applied to remove contaminating nucleotides.
To evaluate the effect of compounds on TREX1 activity, test compounds were serially diluted (11-point, 3-fold) from 10 mM stock solutions and delivered to 384-well low-volume assay plates in 80 nL DMSO using an acoustic dispenser. Next, 4 μL of human TREX1 (0.5 nM), or murine TREX1 (1 nM), diluted in assay buffer (20 mM Tris pH 7.5, 5 mM MgCl2, 100 μg/mL BSA, 0.002% Triton X-100, 2 mM DTT), was added to the assay plate. After incubating for 30 minutes, 4 μL of labeled DNA oligonucleotide (500 nM) in assay buffer was added to initiate TREX1 exonuclease activity. The reaction was allowed to proceed for 45 minutes at room temperature prior to the addition of 4 μL of 150 mM EDTA to halt TREX1 activity.

Chain of human TREX1 (Q9NSU2 whole entry): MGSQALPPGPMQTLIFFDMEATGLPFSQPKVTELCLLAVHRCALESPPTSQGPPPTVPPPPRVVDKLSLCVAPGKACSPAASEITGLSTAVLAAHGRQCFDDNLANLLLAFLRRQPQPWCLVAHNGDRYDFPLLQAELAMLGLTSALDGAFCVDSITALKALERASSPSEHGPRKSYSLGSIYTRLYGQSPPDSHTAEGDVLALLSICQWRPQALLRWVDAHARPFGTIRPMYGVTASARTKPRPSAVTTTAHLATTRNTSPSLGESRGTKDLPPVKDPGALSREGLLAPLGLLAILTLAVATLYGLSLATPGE

Row | Structure (SMILES) | IC50 [µM]
1 | NC(=O)CC[C@H](C(=O)N1Cc2cc(Cl)c(Cl)cc2C1)N1CCC(CCc2ccccc2)N2C[C@H](N)C[C@H]2C1=O (stereo partly drawn) [Example 20] | 10 to 100
2 | COc1cc(Cl)c(Cl)cc1CNC(=O)[C@@H](CCC(=O)O)N1CCC(CCc2ccccc2)N2C[C@H](N)C[C@H]2C1=O (stereo partly drawn) [Example 21] | < 1
3 | NC(=O)C[C@H](C(=O)NCc1ccc(Cl)c(Cl)c1)N1CCC(CCc2ccccc2)N2C[C@H](N)C[C@H]2C1=O (stereo partly drawn) [Example 23] | < 1
4 | N=C(N)NCCC[C@H](C(=O)NCc1ccc(Cl)c(Cl)c1)N1CCC(CCc2ccccc2)N2C[C@H](N)C[C@H]2C1=O (stereo partly drawn) [Example 24] | < 1
5 | N[C@@H]1C[C@H]2C(=O)N([C@H](CCC(=O)O)C(=O)NCc3ccc(Cl)c(Cl)n3)CCC(CCc3ccccc3)N2C1 (stereo partly drawn) [Example 25] | < 1
6 | N[C@@H]1C[C@H]2C(=O)N([C@H](CCC(=O)O)C(=O)N3CCCC[C@H]3c3ccc(Cl)c(Cl)c3)CCC(CCc3ccccc3)N2C1 (stereo partly drawn) [Example 26] | < 1
7 | N[C@@H]1C[C@H]2C(=O)N([C@H](CCC(=O)O)C(=O)N3CCC[C@H]3c3ccc(Cl)c(Cl)c3)CCC(CCc3ccccc3)N2C1 (stereo partly drawn) [Example 27] | < 1
8 | N[C@@H]1C[C@H]2C(=O)N([C@H](CCC(=O)O)C(=O)NCc3cc(Cl)c(Cl)cn3)CCC(CCc3ccccc3)N2C1 (stereo partly drawn) [Example 28] | < 1
9 | N[C@@H]1C[C@H]2C(=O)N([C@H](CCC(=O)O)C(=O)NCc3cc(Cl)c(Cl)cc3F)CCC(CCc3ccccc3)N2C1 (stereo partly drawn) [Example 31] | < 1
10 | N[C@@H]1C[C@H]2C(=O)N([C@H](CCC(=O)O)C(=O)N3CCOC[C@H]3c3ccc(Cl)c(Cl)c3)CCC(CCc3ccccc3)N2C1 (stereo partly drawn) [Example 32] | < 1
11 | N[C@@H]1C[C@H]2C(=O)N([C@H]3CCN(Cc4ccc(Cl)c(Cl)c4)C3=O)CCC(CCc3ccccc3)N2C1 (stereo partly drawn) [Example 33] | < 1
12 | N[C@@H]1C[C@H]2C(=O)N([C@H]3CCCN(Cc4ccc(Cl)c(Cl)c4)C3=O)CCC(CCc3ccccc3)N2C1 (stereo partly drawn) [Example 34] | < 1
13 | N[C@@H]1C[C@H]2C(=O)N([C@@H]3CCCN(Cc4ccc(Cl)c(Cl)c4)C3=O)CCC(CCc3ccccc3)N2C1 (stereo partly drawn) [Example 35] | < 1
14 | NC(=O)C[C@H](C(=O)NCc1ccc(Cl)c(Cl)n1)N1CCC(CCc2ccccc2)N2C[C@H](N)C[C@H]2C1=O (stereo partly drawn) [Example 36] | < 1
15 | Cn1c(Cl)ccc(CNC(=O)[C@@H](CCC(=O)O)N2CCC(CCc3ccccc3)N3C[C@H](N)C[C@H]3C2=O)c1=O (stereo partly drawn) [Example 37] | < 1
16 | N[C@@H]1C[C@H]2C(=O)N(c3cccn(Cc4ccc(Cl)c(Cl)c4)c3=O)CCC(CCc3ccccc3)N2C1 (stereo partly drawn) [Example 38] | < 1
17 | CC(C)C[C@H](C(=O)NCc1cccc(Cl)c1)N1CCC(CCc2ccccc2)N2C[C@H](N)C[C@H]2C1=O (stereo partly drawn) [Example 43] | 1 to 9.99
18 | CC(C)C[C@H](C(=O)NCc1ccccc1Cl)N1CCC(CCc2ccccc2)N2C[C@H](N)C[C@H]2C1=O (stereo partly drawn) [Example 44] | < 1
19 | CC(C)C[C@H](C(=O)NCc1ccc(Cl)cc1Cl)N1CCC(CCc2ccccc2)N2C[C@H](N)C[C@H]2C1=O (stereo partly drawn) [Example 48] | 1 to 9.99
20 | CC(C)C[C@H](C(=O)NCc1ccc(C#N)cc1)N1CCC(CCc2ccccc2)N2C[C@H](N)C[C@H]2C1=O (stereo partly drawn) [Example 49] | < 1
21 | CC(C)C[C@H](C(=O)NCc1cc(Cl)cc(Cl)c1)N1CCC(CCc2ccccc2)N2C[C@H](N)C[C@H]2C1=O (stereo partly drawn) [Example 50] | 1 to 9.99
22 | CC(C)C[C@H](C(=O)NCc1ccc(F)c(F)c1)N1CCC(CCc2ccccc2)N2C[C@H](N)C[C@H]2C1=O (stereo partly drawn) [Example 53] | < 1
23 | CC(C)C[C@H](C(=O)NCc1ccc(Cl)c(F)c1)N1CCC(CCc2ccccc2)N2C[C@H](N)C[C@H]2C1=O (stereo partly drawn) [Example 54] | < 1
24 | CC(C)C[C@H](C(=O)NCc1ccc(Cl)c(C(F)(F)F)c1)N1CCC(CCc2ccccc2)N2C[C@H](N)C[C@H]2C1=O (stereo partly drawn) [Example 55] | < 1
25 | CC(C)C[C@H](C(=O)NCc1ccc(C(F)(F)F)c(F)c1)N1CCC(CCc2ccccc2)N2C[C@H](N)C[C@H]2C1=O (stereo partly drawn) [Example 56] | < 1
26 | Cc1ccc(CNC(=O)[C@@H](CC(C)C)N2CCC(CCc3ccccc3)N3C[C@H](N)C[C@H]3C2=O)cc1Cl (stereo partly drawn) [Example 57] | < 1

Row | Structure (SMILES) | IC50 [µM]
27 | COc1ccc(CNC(=O)[C@@H](CC(C)C)N2CCC(CCc3ccccc3)N3C[C@H](N)C[C@H]3C2=O)cc1Cl (stereo partly drawn) [Example 58] | < 1
28 | COc1ccc(CNC(=O)[C@@H](CC(C)C)N2CCC(CCc3ccccc3)N3C[C@H](N)C[C@H]3C2=O)cc1 (stereo partly drawn) [Example 59] | < 1
29 | CC(C)C[C@H](C(=O)N(C)Cc1ccc(Cl)c(Cl)c1)N1CCC(CCc2ccccc2)N2C[C@H](N)C[C@H]2C1=O (stereo partly drawn) [Example 60] | < 1
30 | CC(C)C[C@H](C(=O)NS(=O)(=O)c1ccccc1)N1CCC(CCc2ccccc2)N2C[C@H](N)C[C@H]2C1=O (stereo partly drawn) [Example 61] | < 1
31 | CC(C)C[C@H](C(=O)NS(=O)(=O)c1ccc(Cl)c(Cl)c1)N1CCC(CCc2ccccc2)N2C[C@H](N)C[C@H]2C1=O (stereo partly drawn) [Example 62] | 1 to 9.99
32 | N#CC[C@H](C(=O)NCc1ccc(Cl)cn1)N1CCC(CCc2ccccc2)N2C[C@H](N)C[C@H]2C1=O (stereo partly drawn) [Example 63, (2R)-2-((8R,9aS)-8-amino-1-oxo-5-phenethylhexahydro-1H-pyrrolo[1,2-a][1,4]diazepin-2(3H)-yl)-N-((5-chloropyridin-2-yl)methyl)-3-cyanopropanamide.HCOOH] | < 1
33 | N#CC[C@H](C(=O)NCc1ccc(Cl)c(C(F)(F)F)c1)N1CCC(CCc2ccccc2)N2C[C@H](N)C[C@H]2C1=O (stereo partly drawn) [Example 64] | < 1
34 | CN(Cc1ccc(Cl)c(Cl)c1)C(=O)[C@@H](CC#N)N1CCC(CCc2ccccc2)N2C[C@H](N)C[C@H]2C1=O (stereo partly drawn) [Example 65] | < 1
35 | N#CC[C@H](C(=O)N1CCc2cc(Cl)c(Cl)cc2C1)N1CCC(CCc2ccccc2)N2C[C@H](N)C[C@H]2C1=O (stereo partly drawn) [Example 66] | 1 to 9.99
36 | N#CC[C@H](C(=O)N1CCc2c(ccc(Cl)c2Cl)C1)N1CCC(CCc2ccccc2)N2C[C@H](N)C[C@H]2C1=O (stereo partly drawn) [Example 67] | 1 to 9.99
37 | N#CC[C@H](C(=O)N1CCOC[C@@H]1c1ccccc1)N1CCC(CCc2ccccc2)N2C[C@H](N)C[C@H]2C1=O (stereo partly drawn) [Example 68] | 10 to 100
38 | N#CC[C@H](C(=O)N1CCOC[C@H]1c1ccccc1)N1CCC(CCc2ccccc2)N2C[C@H](N)C[C@H]2C1=O (stereo partly drawn) [Example 69] | 1 to 9.99
39 | N[C@@H]1C[C@H]2C(=O)N([C@H](CCC(=O)O)C(=O)NCc3ccc(Cl)cn3)CCC(CCc3ccccc3)N2C1 (stereo partly drawn) [Example 70, (4R)-4-((8R,9aS)-8-amino-1-oxo-5-phenethylhexahydro-1H-pyrrolo[1,2-a][1,4]diazepin-2(3H)-yl)-5-(((5-chloropyridin-2-yl)methyl)amino)-5-oxopentanoic Acid] | < 1
40 | N[C@@H]1C[C@H]2C(=O)N([C@H](CCC(=O)O)C(=O)NCc3ccc(Cl)c(Cl)c3)CCC(CCOc3ccccc3)N2C1 (stereo partly drawn) [Example 71, (4R)-4-((8R,9aS)-8-amino-1-oxo-5-(2-phenoxyethyl)hexahydro-1H-pyrrolo[1,2-a][1,4]diazepin-2(3H)-yl)-5-((3,4-dichlorobenzyl)amino)-5-oxopentanoic Acid] | 1 to 9.99
41 | COc1ccc(OCC2CCN([C@H](CCC(=O)O)C(=O)NCc3ccc(Cl)c(Cl)c3)C(=O)[C@@H]3C[C@@H](N)CN23)cc1 (stereo partly drawn) [Example 72, (4R)-4-((8R,9aS)-8-amino-5-((4-methoxyphenoxy)methyl)-1-oxohexahydro-1H-pyrrolo[1,2-a][1,4]diazepin-2(3H)-yl)-5-((3,4-dichlorobenzyl)amino)-5-oxopentanoic Acid] | 1 to 9.99
42 | Cc1ccc(OCC2CCN([C@H](CCC(=O)O)C(=O)NCc3ccc(Cl)c(Cl)c3)C(=O)[C@@H]3C[C@@H](N)CN23)cc1 (stereo partly drawn) [Example 73] | 1 to 9.99
43 | N[C@@H]1C[C@H]2C(=O)N([C@H](CCC(=O)O)C(=O)NCc3ccc(Cl)c(Cl)c3)CCC(COc3ccc(Cl)cc3)N2C1 (stereo partly drawn) [Example 74] | < 1
44 | N[C@@H]1C[C@H]2C(=O)N([C@H](CCC(=O)O)C(=O)NCc3ccc(Cl)c(Cl)c3)CCC(COc3ccc(F)cc3)N2C1 (stereo partly drawn) [Example 75] | < 1
45 | N[C@@H]1C[C@H]2C(=O)N([C@H](CCC(=O)O)C(=O)NCc3ccc(Cl)c(Cl)c3)CCC(COc3cccc(Cl)c3)N2C1 (stereo partly drawn) [Example 76] | < 1
46 | N[C@@H]1C[C@H]2C(=O)N([C@H](CCC(=O)O)C(=O)NCc3ccc(Cl)c(Cl)c3)CCC(COc3ccccc3Cl)N2C1 (stereo partly drawn) [Example 78] | < 1
47 | N[C@@H]1C[C@H]2C(=O)N([C@H](CCC(=O)O)C(=O)NCc3ccc(Cl)c(Cl)c3)CCC(COc3cnccn3)N2C1 (stereo partly drawn) [Example 80] | 1 to 9.99
48 | N[C@@H]1C[C@H]2C(=O)N([C@@H]3CCCN(S(=O)(=O)c4ccccc4)C3)CCC(CCc3ccccc3)N2C1 (stereo partly drawn) [Example 84] | 10 to 100
49 | N[C@@H]1C[C@H]2C(=O)N([C@@H]3CCCN(C(=O)c4ccc(Cl)c(Cl)c4)C3)CCC(CCc3ccccc3)N2C1 (stereo partly drawn) [Example 85] | 10 to 100
50 | N[C@@H]1C[C@H]2C(=O)N([C@H]3CCCN(S(=O)(=O)c4ccc(Cl)c(Cl)c4)C3)CCC(CCc3ccccc3)N2C1 (stereo partly drawn) [Example 86] | 1 to 9.99
51 | N[C@@H]1C[C@H]2C(=O)N([C@H]3CCCN(C(=O)c4ccc(Cl)c(Cl)c4)C3)CCC(CCc3ccccc3)N2C1 (stereo partly drawn) [Example 87] | 10 to 100
